# Measurements reported in the OligoGym collection.
# Where “and” joins values, the source holds several entries; their conditions need not be identical. Identical values can stand only once. After the bases stand the sugars from the 5' end (letter, count) and the backbone: PS all phosphorothioate, else s phosphorothioate and o phosphodiester by linkage. Methylation of C is not given here. e = 2'-O-(2-methoxyethyl) (MOE); k = constrained ethyl (cEt); d = 2'-deoxy (DNA)
# Biological target: SOD1
# Details: ASO
sequence,measurement,setting,value
"GTGATCATAAATCAGTT (sugars e2 k2 d8 k2 e3, PS)",target mRNA inhibition,"HepG2, 5 µM",33%
"TTCCCCACACCTTCAC (sugars kekeddddddddekek, linkages s1 o3 s8 o1 s2)",target mRNA inhibition,"A431, 0.12 µM",4%
same,target mRNA inhibition,"A431, 0.6 µM",12%
same,target mRNA inhibition,"A431, 3 µM",5%
same,target mRNA inhibition,"A431, 15 µM",12%
same,target mRNA inhibition,"HepG2, 0.222 µM",6%
same,target mRNA inhibition,"HepG2, 0.667 µM",16%
same,target mRNA inhibition,"HepG2, 2 µM",20%
same,target mRNA inhibition,"HepG2, 6 µM",59%
"CCGTCGCCCTTCAGCAC (sugars e2 k2 d9 k2 e2, PS)",target mRNA inhibition,"HepG2, 0.1875 µM",24%
same,target mRNA inhibition,"HepG2, 0.75 µM",42%
same,target mRNA inhibition,"HepG2, 3 µM",80%
same,target mRNA inhibition,"HepG2, 4 µM",75%
same,target mRNA inhibition,"HepG2, 12 µM",94%
"ACTCTGAAAAAGTCACACAA (sugars e5 d10 e5, PS)",target mRNA inhibition,"HepG2, 5 µM",21%
"GTGCCATACAGGGTTTT (sugars e2 k2 d9 k2 e2, PS)",target mRNA inhibition,"HepG2, 5 µM",28%
"ACCCATCTGTGATTTAA (sugars e2 k2 d8 k2 e3, PS)",target mRNA inhibition,"HepG2, 5 µM",33%
"TCCAAGGGAATGTTTAT (sugars e3 k2 d7 k2 e3, PS)",target mRNA inhibition,"HepG2, 3 µM",32%
"CATGCCTCTCTTCATCC (sugars e3 k2 d7 k2 e3, PS)",target mRNA inhibition,"HepG2, 3 µM",14%
"TGGACCACCAGTGTGCGGCC (sugars e5 d10 e5, PS)",target mRNA inhibition,"HepG2, 5 µM",28%
"CTACAGCTAGCAGGATA (sugars e2 k2 d8 k2 e3, PS)",target mRNA inhibition,"HepG2, 0.1875 µM",40%
same,target mRNA inhibition,"HepG2, 0.75 µM",79%
same,target mRNA inhibition,"HepG2, 3 µM",89%
same,target mRNA inhibition,"HepG2, 4 µM",87%
same,target mRNA inhibition,"HepG2, 12 µM",94%
"GACGCAAACCAGCACCCCGT (sugars e5 d10 e5, PS)",target mRNA inhibition,"HepG2, 4 µM",45%
"CCATGCAGGCCTTCAGT (sugars e3 k2 d7 k2 e3, PS)",target mRNA inhibition,"HepG2, 3 µM",21%
"GGCGATCCCAATTACACCAC (sugars e6 d9 e5, linkages s1 o4 s10 o2 s2)",target mRNA inhibition,"A431, 0.062 µM",0%
same,target mRNA inhibition,"A431, 0.185 µM",0%
same,target mRNA inhibition,"A431, 0.556 µM",0%
same,target mRNA inhibition,"A431, 1.667 µM",0%
same,target mRNA inhibition,"A431, 5 µM",4%
same,target mRNA inhibition,"A431, 15 µM",0%
same,target mRNA inhibition,"SH-SY5Y, 0.062 µM",0%
same,target mRNA inhibition,"SH-SY5Y, 0.185 µM",3%
same,target mRNA inhibition,"SH-SY5Y, 0.556 µM",20%
same,target mRNA inhibition,"SH-SY5Y, 1.667 µM",38%
same,target mRNA inhibition,"SH-SY5Y, 5 µM",61%
same,target mRNA inhibition,"SH-SY5Y, 15 µM",84%
"GTTTCTCACTACAGGTA (sugars e2 k2 d9 k2 e2, PS)",target mRNA inhibition,"HepG2, 5 µM",38%
"CCACACCATCTTTGTCAGCA (sugars e5 d10 e5, PS)",target mRNA inhibition,"HepG2, 5 µM",39% and 20%
"CCCCGTCTCCGCGACTACTT (sugars e5 d10 e5, PS)",target mRNA inhibition,"HepG2, 4 µM",16%
"CCACACCTTCACTGGTCCAT (sugars e5 d10 e5, PS)",target mRNA inhibition,"HepG2, 2 µM",50%
"ATAAGTGCCATACAGGG (sugars e2 k2 d8 k2 e3, PS)",target mRNA inhibition,"HepG2, 5 µM",36%
"CTTCAATAGACACATCG (sugars e3 k2 d7 k2 e3, PS)",target mRNA inhibition,"HepG2, 3 µM",9%
"GGCCTTCAGTCAGTCCTTTA (sugars e5 d10 e5, PS)",target mRNA inhibition,"HepG2, 5 µM",41% and 39%
"ACACCTTCACTGGTCCATTA (sugars e5 d10 e5, linkages s1 o3 s11 o3 s1)",target mRNA inhibition,"A431, 0.12 µM",5%
same,target mRNA inhibition,"A431, 0.6 µM",4%
same,target mRNA inhibition,"A431, 3 µM",4%
same,target mRNA inhibition,"A431, 15 µM",10%
same,target mRNA inhibition,"HepG2, 2 µM",50% and 36% and 39%
"ATGTTTATCAGGATACA (sugars e2 k2 d9 k2 e2, PS)",target mRNA inhibition,"HepG2, 0.1875 µM",27%
same,target mRNA inhibition,"HepG2, 0.75 µM",65%
same,target mRNA inhibition,"HepG2, 3 µM",88%
same,target mRNA inhibition,"HepG2, 4 µM",81%
same,target mRNA inhibition,"HepG2, 12 µM",96%
"CGCTGCAGGAGACTACG (sugars e3 k2 d7 k2 e3, PS)",target mRNA inhibition,"HepG2, 3 µM",0%
"GGGCCTCAGACTACATC (sugars e3 k2 d7 k2 e3, PS)",target mRNA inhibition,"HepG2, 3 µM",24%
"GTTTTTATTCACAGGCT (sugars e3 k2 d7 k2 e3, PS)",target mRNA inhibition,"HepG2, 3 µM",10%
"GTGAGGACCTGCACTGG (sugars e3 k2 d7 k2 e3, PS)",target mRNA inhibition,"HepG2, 3 µM",21%
"TTTTCATGGACCACCAGTGT (sugars e5 d10 e5, PS)",target mRNA inhibition,"HepG2, 5 µM",17%
"CAAAATACAGGTCATTG (sugars e2 k2 d9 k2 e2, PS)",target mRNA inhibition,"HepG2, 5 µM",56%
"TGCCTCTCTTCATCCTTTGG (sugars e5 d10 e5, PS)",target mRNA inhibition,"HepG2, 3 µM",32%
"GATACATTTCTACAGC (sugars ekddddddddekekee, linkages s1 o1 s8 o3 s2)",target mRNA inhibition,"A431, 0.12 µM",0%
same,target mRNA inhibition,"A431, 0.6 µM",0%
same,target mRNA inhibition,"A431, 3 µM",0%
same,target mRNA inhibition,"A431, 15 µM",18%
same,target mRNA inhibition,"HepG2, 0.222 µM",40%
same,target mRNA inhibition,"HepG2, 0.667 µM",60%
same,target mRNA inhibition,"HepG2, 2 µM",80%
same,target mRNA inhibition,"HepG2, 6 µM",93%
"TGTTTATCAGGATACATTTC (sugars e5 d10 e5, PS)",target mRNA inhibition,"HepG2, 5 µM",52%
"CAAGTTTAATACCCATC (sugars e3 k2 d7 k2 e3, PS)",target mRNA inhibition,"HepG2, 3 µM",37%
"TTAATGTTTATCAGGATACA (sugars e5 d10 e5, PS)",target mRNA inhibition,"HepG2, 5 µM",34%
"ACCTGCACTGGTACAGC (sugars e3 k2 d7 k2 e3, PS)",target mRNA inhibition,"HepG2, 3 µM",12%
"TCCACCTTTGCCCAAGT (sugars e3 k2 d7 k2 e3, PS)",target mRNA inhibition,"HepG2, 3 µM",88%
